“Also recorded” adds a separate entry of the source. Read-outs that look alike come from different tables or passages of the source.
Experiments:
[1] = Moisture absorption test (hygroscopicity); format: physicochemical; conditions: 25° C.; for Hygroscopicity (in words): measurement humidity 10 to 95% RH; for Hygroscopicity, change in weight: relative humidity 10→80%
Procedure: A sample was weighed in a glass sample cup, and the weight thereof was measured under the following conditions.
Measuring device: DVS Advantage, manufactured by Surface Measurement System Ltd.
Measurement temperature: 25° C., Minimum exposure time: 15 min, Maximum exposure time: 120 min, Step transition condition: within 0.006 wt. %
The appearance of the sample at the time of completion of the measurement was confirmed.

[2] = Solubility test; format: physicochemical; conditions: aqueous phosphate solution with 150 mM NaCl, pH around 7.5
Procedure: 150 mg of each of the compounds of Examples 1 and 2 and Comparative Example 1 was dissolved in 5 mL of an aqueous phosphate solution containing sodium chloride (containing 150 mM NaCl and 10 mM […]). After the resulting mixture was stirred for 30 minutes while measuring the pH of the mixture, a 0.5 mL portion of the resulting suspension was taken and filtered through a syringe filter. A 100 μL portion of the obtained filtrate was transferred into a 10-mL volumetric flask and diluted to 10 mL with an aqueous solution of 50% MeCN, whereby a sample solution was prepared. To the suspension, concentrated HCl was added dropwise to adjust the pH thereof to around 7.5.
Measurement was performed using HPLC under the following conditions.
HPLC system: Water's Alliance
Column: XTerra MS C18 3.5 μm, Column Size: 4.6×100 mm
Column Temp: 40° C., Flow Rate: 1.2 mL/min
Solvent A: 0.1% phosphoric acid in water, Solvent B: 0.1% phosphoric acid in MeCN

[3] = Solution stability test; conditions: light tester, versus light-shielded control
Procedure: (§1) The above flasks as such and the flasks covered with aluminum foil for light shielding as controls were placed in a light tester at 25° C. After one day, each solution was diluted to 10 mL with 50% MeCN. The concentration of each solution was calculated by performing HPLC under the same conditions as used in the above-described solubility test, and the change in concentration from the control was calculated.

[4] = test system: TNF-α production in human monocytic cell line U937 stimulated with endotoxin; experiment: Suppressive effect on production of TNF-α in cells stimulated with endotoxin (in vitro); format: cell-based; conditions: concentration of test compound: 100 nM, LPS 30 ng/ml, 4.5 hours
Procedure: The rate of suppression of TNF-α production when human monocytic cell line U937 was stimulated with endotoxin was determined for the compound of the present invention. Specifically, to RPMI-1640 medium containing 10% (volume %) of inactivated newborn bovine serum, 12-O-tetradecanoylphorbol-13-acetate was added to give a final concentration of 30 ng/ml. U937 cells were suspended in the medium and plated into a 96-well culture plate (Sumilon) so that the number of cells per well/volume was 2×10^4/0.1 mL, and the culture plate was then incubated for 3 days at 37° C. in a carbon dioxide incubator with 5% CO2 and 100% humidity. After completion of the incubation, the culture supernatant was removed. […] By using a 384-well half area black plate (Greiner) and an HTRF quantitative determination kit manufactured by Cisbio International, the concentration of TNF-α in the culture supernatant was measured as time-resolved fluorescence by Discovery (Packard). From the measured value in the absence of LPS (X), the measured value in the absence of the compound of the present invention (Y), and the measured value in the presence of the compound of the present invention (Z), the rate of suppression of TNF-α production was obtained according to the following calculation formula [I]. […]

[5] = test system: blood TNF-α level; experiment: Suppressive effect on elevation of blood TNF-α level (in vivo); set-up: species or system Sprague Dawley rats; conditions: test compound 0.3 mg/kg, femoral vein, 0.5 hours before LPS; rat plasma 2 hours after LPS
Procedure: The suppressive effect of the compound of the present invention on the elevation of blood TNF-α level was studied. A test for the elevation of blood TNF-α level was performed in accordance with the method of Parant et al. described in Journal of Leukocyte Biology, Vol. 47, page 164 (1990).
In the test, 3 to 4 male Sprague Dawley rats (8 to 9 weeks of age) were used for each group.
At 4 hours before the administration of LPS, muramyl dipeptide dissolved in physiological saline (1 mg/mL) was administered to each rat through the tail vein at a dose of 1 mL/kg. At 0.5 hours before the administration of LPS, the rats were anaesthetized with pentobarbital (40 mg/kg), and the compound of the present invention dissolved in a 5% dimethyl acetamide/95% polyethylene glycol 400 solution was administered to each rat through the right femoral vein at a dose of 1 mL/kg. To the control group, a 5% dimethyl acetamide/95% polyethylene glycol 400 solution was administered at a dose of 1 mL/kg. […] The plasma TNF-α level was determined using a TNF-α quantitative determination kit (BioSource International, Inc.). From the blood TNF-α level in the control group (X) and the blood TNF-α level in the group administered with the compound of the present invention (Y), the rate of suppression of TNF-α production was calculated according to the following calculation formula [II]. […]

[6] = pH 7
Procedure: as §1

Structure (SMILES)	Hygroscopicity (in words) [1]	Hygroscopicity, change in weight [1]	Solubility (PBS pH 7.5) [2]	Solution stability (25° C., 1 day) ([3]; McIlvaine buffer pH 8) [%]	Rate of suppression of TNF-α production [4] [%]	Rate of suppression of TNF-α production [5] [%]	Solution stability (25° C., 1 day) ([3]; PBS pH 6) [%]	Solution stability (25° C., 1 day) [6] [%]
CCOC(=O)C1=CC2(CC[C@H]1S(=O)(=O)Nc1ccc(F)cc1Cl)O[C@H](CO)[C@@H](CO)O2 (single isomer, unassigned) [Comparative Example, reference compound]	showed high hygroscopicity at every measurement humidity; also recorded: With hygroscopicity	2.6% (relative	low solubility	99.4				
CCOC(=O)C1=CC2(CC[C@H]1S(=O)(=O)[N-]c1ccc(F)cc1Cl)O[C@H](CO)[C@@H](CO)O2.[K+] [Example 1, Potassium(2-chloro-4-fluorophenyl){[(2R,3R,8R)-7-(ethoxycarbonyl)-2,3-bis(hydroxymethyl)-1,4-dioxaspiro[4.5]deca-6-en-8-yl]sulfonyl}azanide]	did not show hygroscopicity	<0.1% (relative	13.8 mg/ml		89	96	99.9	
CCOC(=O)C1=CC2(CC[C@H]1S(=O)(=O)[N-]c1ccc(F)cc1Br)O[C@H](CO)[C@@H](CO)O2.[K+] [Example 2, Potassium(2-bromo-4-fluorophenyl){[(2R,3R,8R)-7-(ethoxycarbonyl)-2,3-bis(hydroxymethyl)-1,4-dioxaspiro[4.5]deca-6-en-8-yl]sulfonyl}azanide]	did not show hygroscopicity	<0.1% (relative	9.6 mg/ml			81		99.4

From US8933117B2, “Crystals of substituted cycloalkene derivatives” (Daiichi Sankyo Company, Limited, priority 2010, dated 2015)
